Measured values reported in patent US8603493B2, “Carbosilane dendrimers, preparation method thereof and use of same” (Dendrico, S.L., priority 2005, dated 2013).

Key:
[1] = system: peripheral blood mononuclear cells (PBMC); assay: Visual examination of PBMC incubated with dendrimers; type: cell-based, human; conditions: for visual examination of PBMC: 48 hours
Method: The toxicity of dendrimers IM8, IM16, ClNH4, NN, Phe and the commercial controls SF (Superfect) and G4 were tested. Different quantities were taken of each one of them so that the final concentrations with which the cells were incubated were 1 μM, 5 μM, 10 μM, 20 μM and 100 μM.
The blood came from adult donors or the umbilical cord of health newborns. Said blood was diluted ½ with PBS and it was centrifuged in a Ficoll gradient. After said centrifugation, the PBMC halo was recovered and two subsequent washing-centrifuging cycles were carried out. The resulting PBMC were resuspended in complete culture medium with 10% FCS, antibiotics and glutamine.
100 μl of 10% complete medium of foetal calf serum, antibiotics and glutamine were added to a volume of 60 μl of RPMI with the corresponding dendrimer tested. 160 μl were then added to the cells seeded in 340 μl, completing a final volume of 500 μl. The cells were incubated in this way for 48 hours and then the effect of the incubation with the dendrimers was evaluated by its visual examination and by the evaluation of the mitochondrial activity.

[2] = system: erythrocytes; assay: Visual examination of erythrocytes (hemagglutination); type: cell-based, human
Method: A visual examination was carried out to detect the presence/absence of hemagglutination and quantification of haemoglobin release (haemolysis test) by spectrophotometry. ClNH4 was excluded from the dendrimers of previous Example 38, as the result had been more toxic for lymphocytes, and the results were compared with those produced for a PAMAN type generation 4 dendrimer.
The erythrocytes were obtained after being separated from the PBMC using the same Ficoll gradient cited in the previous Example. They were diluted in PBS to be able to view them individually. The cells were resuspended in 500 μl of PBS and were seeded in a 24-well plate (300,000/well). As positive control, cells treated with 0.2% Triton X-100 were used. Negative control: PBS (blank). The erythrocytes were incubated with different dendrimer concentrations. The presence of hemagglutination, number of cells and release of haemoglobin by hour were evaluated by collecting 100 μl of supernatant and measuring absorbencies by spectrophotometry using a plate reader at a wavelength of 550 nm and 690 nm as reference.

[3] = Dendrimer-drug binding test (polyacrylamide gel delay), methotrexate; conditions: dendrimer 100 μM, charge ratios 1+/1− to 8+/1−, 37° C., 1 hour
Method: (§1) The drugs chosen to perform the tests, all with at least one negative charge at physiological pH, were: • Methotrexate (sodium salt): • 1 charge (−) • Supplying laboratory: Almirall • Presentation: 25 mg/ml solution • Excipients: NaCl, NaOH, HCl, double-distilled H2O • Heparin (sodium salt) • Several charges (−) • Supplying laboratory: Rovi • Presentation: 10 mg/ml solution (1000 U) • Excipients: methyl p-oxybenzoate, propyl p-oxybenzoate, NaCl, double-distilled H2O • Insulin (recombinant human insulin) • 4 charges (−) • Supplying laboratory: Novo Nordisk • Product trade name: Actrapid • Presentation: 3.5 mg/ml solution (100 U) • Excipients: ZnCl2, HCl, NaOH, double-distilled H2O
(§2) The determination of the bond and complex formation between the dendrimer and the drug was performed by evaluating the delay in the polyacrylamide gel of the dendrimer bound to drug with respect to the free dendrimer: • Complex formation: It is performed in a final volume of the mixture of 30 μl, which is the maximum volume to load in the gel. To do this, one starts from the necessary quantity of dendrimer that provides a perfectly identifiable band by staining with silver nitrate in the gel once the electrophoresis has been carried out: 20 μl of a 100 μM solution, which corresponds to […] molecules. The drug is added in the 10 μl at different concentrations to produce the chosen (+) and (−) charge ratios, also determining the quantity of drug molecules present in the mixture. An incubation of said mixture was performed at 37° C. during 1 hour to give time for a more thermodynamically stable complex to form, although more time may be needed for its formation. Each complex is performed in duplicate. • Electrophoresis and gel staining: The gels used were 7.5% polyacrylamide/bisacrylamide, prepared with 1.5M Tris pH 8.8. Each electrophoresis was carried out at 90 volts during 4 hours, after which the gel was stained with silver nitrate and photographed. […]

[4] = Dendrimer-drug binding test (polyacrylamide gel delay), heparin; conditions: dendrimer 100 μM, heparin 10, 1, 0.5, 0.1 U, 37° C., 1 hour
Method: as §1, §2

[5] = target: T1, Insulin (recombinant human insulin) (Homo sapiens, UniProt P01308); assay: Dendrimer-drug binding test (polyacrylamide gel delay), insulin; conditions: dendrimer 100 μM, insulin 1, 0.5, 0.1, 0.05 U, 37° C., 1 hour
T1 construct: Despite having its molecular weight (5825 g/mol) and establishing an average of 4 (−) charges; purchased Novo Nordisk Actrapid (trade name; no catalogue number given)
T1 sequence (P01308 25-54 limits assumed): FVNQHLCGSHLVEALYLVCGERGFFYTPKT
T1 sequence (P01308 90-110 limits assumed): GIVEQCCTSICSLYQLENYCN
Method: as §1, §2

SMILES | visual examination of PBMC ([1]; 1 μM) | visual examination of PBMC ([1]; 5 μM) | visual examination of PBMC ([1]; 10 μM) | induction of hemagglutination / haemolysis [2] | order of hemagglutination from greater to lesser [2] | Visual examination of erythrocytes incubated with dendrimers ([2]; 1 μM) | Visual examination of erythrocytes incubated with dendrimers ([2]; 5 μM) | Visual examination of erythrocytes incubated with dendrimers ([2]; 20 μM) | dendrimer-methotrexate complex formation (delay in gel) [3] | dendrimer-heparin complex formation (delay in gel) [4] | dendrimer-insulin complex formation (delay in gel) [5] | toxicity for the lymphocytes from the visual observation (comparison) [1] | visual examination of PBMC ([1]; 20 μM) | visual examination of PBMC ([1]; 100 μM) | Visual examination of erythrocytes incubated with dendrimers ([2]; 10 μM) | biocompatibility profile, toxicity on lymphocytes and erythrocytes taken together [2]
C[Si](C)(CCCN)CCC[Si](C)(CCC[Si](C)(C)CCCN)CCC[Si](CCC[Si](C)(CCC[Si](C)(C)CCCN)CCC[Si](C)(C)CCCN)(CCC[Si](C)(CCC[Si](C)(C)CCCN)CCC[Si](C)(C)CCCN)CCC[Si](C)(CCC[Si](C)(C)CCCN)CCC[Si](C)(C)CCCN.Cl.Cl.Cl.Cl.Cl.Cl.Cl.Cl [ClNH4, 2G-[Si(CH2)3NH3^+Cl^−]8] | O.K | Aggregates + |  |  |  |  |  |  |  |  |  |  |  |  |  | 
C[N+](C)(C)CCO[Si](C)(CCC[Si](C)(CCC[Si](CCC[Si](C)(CCC[Si](C)(OCC[N+](C)(C)C)OCC[N+](C)(C)C)CCC[Si](C)(OCC[N+](C)(C)C)OCC[N+](C)(C)C)(CCC[Si](C)(CCC[Si](C)(OCC[N+](C)(C)C)OCC[N+](C)(C)C)CCC[Si](C)(OCC[N+](C)(C)C)OCC[N+](C)(C)C)CCC[Si](C)(CCC[Si](C)(OCC[N+](C)(C)C)OCC[N+](C)(C)C)CCC[Si](C)(OCC[N+](C)(C)C)OCC[N+](C)(C)C)CCC[Si](C)(OCC[N+](C)(C)C)OCC[N+](C)(C)C)OCC[N+](C)(C)C.[I-].[I-].[I-].[I-].[I-].[I-].[I-].[I-].[I-].[I-].[I-].[I-].[I-].[I-].[I-].[I-] [IM16, 2G-[Si(OCH2CH2NMe3^+I^−)2]8] | O.K | O.K | Cell aggregates + | induces agglutination | G4>Phe>IM16>IM8>NN | O.K | Ag++ | No cells | complex is not formed | complex is formed | complex is formed |  |  |  |  | 
C[N+](C)(C)CCOc1cc(CO[Si](C)(C)CCC[Si](C)(CCC[Si](CCC[Si](C)(CCC[Si](C)(C)OCc2cc(OCC[N+](C)(C)C)cc(OCC[N+](C)(C)C)c2)CCC[Si](C)(C)OCc2cc(OCC[N+](C)(C)C)cc(OCC[N+](C)(C)C)c2)(CCC[Si](C)(CCC[Si](C)(C)OCc2cc(OCC[N+](C)(C)C)cc(OCC[N+](C)(C)C)c2)CCC[Si](C)(C)OCc2cc(OCC[N+](C)(C)C)cc(OCC[N+](C)(C)C)c2)CCC[Si](C)(CCC[Si](C)(C)OCc2cc(OCC[N+](C)(C)C)cc(OCC[N+](C)(C)C)c2)CCC[Si](C)(C)OCc2cc(OCC[N+](C)(C)C)cc(OCC[N+](C)(C)C)c2)CCC[Si](C)(C)OCc2cc(OCC[N+](C)(C)C)cc(OCC[N+](C)(C)C)c2)cc(OCC[N+](C)(C)C)c1.[I-].[I-].[I-].[I-].[I-].[I-].[I-].[I-].[I-].[I-].[I-].[I-].[I-].[I-].[I-].[I-] [Phe, 2G-[Si(OCH2—(C6H3)-3,5-(OCH2CH2NMe3^+I^−)2)]8] | O.K | O.K | O.K | induces hemagglutination | G4>Phe>IM16>IM8>NN | Ag+ | Ag+++ |  |  |  |  | least toxic | Few cells | Isolated cells. | Ag+++ | 
CN(CCO[Si](C)(C)CCC[Si](C)(CCC[Si](CCC[Si](C)(CCC[Si](C)(C)OCCN(C)CC[N+](C)(C)C)CCC[Si](C)(C)OCCN(C)CC[N+](C)(C)C)(CCC[Si](C)(CCC[Si](C)(C)OCCN(C)CC[N+](C)(C)C)CCC[Si](C)(C)OCCN(C)CC[N+](C)(C)C)CCC[Si](C)(CCC[Si](C)(C)OCCN(C)CC[N+](C)(C)C)CCC[Si](C)(C)OCCN(C)CC[N+](C)(C)C)CCC[Si](C)(C)OCCN(C)CC[N+](C)(C)C)CC[N+](C)(C)C.[I-].[I-].[I-].[I-].[I-].[I-].[I-].[I-] [NN, 2G-[Si(O(CH2)2N(Me)(CH2)2NMe3^+I^−)]8] | O.K | O.K |  | does not | G4>Phe>IM16>IM8>NN | O.K | O.K | No cells | complex is formed | complex is formed | complex is formed | least toxic |  |  | Ag+/− | better biocompatibility profiles
C[N+](C)(C)CCO[Si](C)(C)CCC[Si](C)(CCC[Si](CCC[Si](C)(CCC[Si](C)(C)OCC[N+](C)(C)C)CCC[Si](C)(C)OCC[N+](C)(C)C)(CCC[Si](C)(CCC[Si](C)(C)OCC[N+](C)(C)C)CCC[Si](C)(C)OCC[N+](C)(C)C)CCC[Si](C)(CCC[Si](C)(C)OCC[N+](C)(C)C)CCC[Si](C)(C)OCC[N+](C)(C)C)CCC[Si](C)(C)OCC[N+](C)(C)C.[I-].[I-].[I-].[I-].[I-].[I-].[I-].[I-] [IM8, 2G-[Si(OCH2CH2NMe3^+I^−)]8] | O.K | O.K |  |  | G4>Phe>IM16>IM8>NN | O.K | Ag+ | No cells |  |  |  |  |  |  | Ag+ | 
